Measurements as given in patent US12195482B1 (Arcus Biosciences, Inc., priority 2022, dated 2025).

Experiments:
recombinant human MER = molecular target: T1, recombinant human MER (Homo sapiens, UniProt Q12866); test: Biochemical potency, HTRF KinEASE-TK kinase assay; conditions: 1 nM MER, 700 μM ATP
T1 construct: purchased Invitrogen
T1 sequence (Q12866 21-999): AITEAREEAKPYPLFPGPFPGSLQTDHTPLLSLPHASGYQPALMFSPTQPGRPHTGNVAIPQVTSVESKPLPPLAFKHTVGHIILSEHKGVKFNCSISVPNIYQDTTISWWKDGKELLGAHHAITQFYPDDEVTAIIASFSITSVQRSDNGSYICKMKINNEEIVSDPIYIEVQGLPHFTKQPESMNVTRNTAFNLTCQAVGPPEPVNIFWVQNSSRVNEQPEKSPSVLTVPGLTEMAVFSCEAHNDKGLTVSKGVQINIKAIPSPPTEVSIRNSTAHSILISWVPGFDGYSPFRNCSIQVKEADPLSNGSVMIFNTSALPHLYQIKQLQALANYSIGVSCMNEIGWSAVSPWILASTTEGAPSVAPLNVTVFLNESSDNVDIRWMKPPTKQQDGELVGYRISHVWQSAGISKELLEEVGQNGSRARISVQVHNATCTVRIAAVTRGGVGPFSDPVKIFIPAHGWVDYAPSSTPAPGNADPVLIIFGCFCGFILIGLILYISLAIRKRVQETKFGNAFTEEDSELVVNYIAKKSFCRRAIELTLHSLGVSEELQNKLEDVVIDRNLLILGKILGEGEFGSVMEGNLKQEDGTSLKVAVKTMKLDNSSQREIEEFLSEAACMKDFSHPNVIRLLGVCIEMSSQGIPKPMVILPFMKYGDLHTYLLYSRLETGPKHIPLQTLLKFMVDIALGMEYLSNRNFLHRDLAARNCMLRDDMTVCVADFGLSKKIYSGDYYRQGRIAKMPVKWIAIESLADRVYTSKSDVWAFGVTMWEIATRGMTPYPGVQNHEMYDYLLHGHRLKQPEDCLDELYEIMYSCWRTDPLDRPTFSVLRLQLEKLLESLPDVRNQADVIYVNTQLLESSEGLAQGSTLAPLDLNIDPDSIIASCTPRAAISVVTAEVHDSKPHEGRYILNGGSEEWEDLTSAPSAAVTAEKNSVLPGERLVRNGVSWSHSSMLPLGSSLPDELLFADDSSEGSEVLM
Summary of the method: (§1)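 Phosphorylation of a biotinylated tyrosine-kinase peptide (800 nM) by AXL (5 nM) or TYRO3/MER (1 nM) is measured at 700 µM ATP after 2 h at room temperature, following 1 h enzyme–compound preincubation. Signal is the time-resolved FRET ratio, converted to percent activity.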

recombinant human TYRO3 = molecular target: T2, recombinant human TYRO3 (Homo sapiens, UniProt Q06418); test: Biochemical potency, HTRF KinEASE-TK kinase assay; conditions: 1 nM TYRO3, 700 μM ATP
T2 construct: purchased Invitrogen
T2 sequence (Q06418 41-890): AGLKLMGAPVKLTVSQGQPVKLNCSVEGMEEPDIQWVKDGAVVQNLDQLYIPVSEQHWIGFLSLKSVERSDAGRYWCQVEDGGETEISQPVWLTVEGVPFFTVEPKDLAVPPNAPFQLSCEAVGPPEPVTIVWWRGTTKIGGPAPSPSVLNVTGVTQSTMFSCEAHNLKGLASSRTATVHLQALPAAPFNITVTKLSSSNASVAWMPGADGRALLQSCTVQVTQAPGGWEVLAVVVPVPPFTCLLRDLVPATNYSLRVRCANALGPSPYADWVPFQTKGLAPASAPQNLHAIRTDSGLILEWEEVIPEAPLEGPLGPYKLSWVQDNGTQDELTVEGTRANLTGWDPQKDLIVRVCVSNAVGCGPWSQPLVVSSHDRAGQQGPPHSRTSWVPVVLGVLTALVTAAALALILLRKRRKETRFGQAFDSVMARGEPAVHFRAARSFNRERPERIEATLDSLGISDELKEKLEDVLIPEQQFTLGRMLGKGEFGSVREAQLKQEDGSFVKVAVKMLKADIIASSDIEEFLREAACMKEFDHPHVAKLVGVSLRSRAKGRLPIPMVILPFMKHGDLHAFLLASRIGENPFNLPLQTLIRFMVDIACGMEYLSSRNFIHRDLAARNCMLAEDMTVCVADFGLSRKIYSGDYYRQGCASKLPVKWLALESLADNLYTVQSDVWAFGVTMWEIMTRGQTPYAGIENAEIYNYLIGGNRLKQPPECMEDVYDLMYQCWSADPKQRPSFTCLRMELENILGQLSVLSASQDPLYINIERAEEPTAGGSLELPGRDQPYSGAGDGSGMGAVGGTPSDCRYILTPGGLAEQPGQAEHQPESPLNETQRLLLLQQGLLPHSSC
Summary of the method: as §1

Compound | IC50 (recombinant human MER) [nM] | IC50 (recombinant human TYRO3) [nM]
N#Cc1cccnc1-c1ccc(-c2c[nH]c3ncc(-c4ccc5c(c4)CC[C@@H](N4C6COCC4C6)CC5)cc23)cc1 [Example 46, 2-(4-{5-[(7S)-7-{3-Oxa-6-azabicyclo[3.1.1]heptan-6-yl}-6,7,8,9-tetrahydro-5H-benzo[7]annulen-2-yl]-1H-pyrrolo[2,3-b]pyridin-3-yl}phenyl)pyridine-3-carbonitrile] | 100 to 1000 | 100 to 1000
Cc1nccnc1-c1ccc(-c2c[nH]c3ncc(-c4ccc5c(c4)CC[C@@H](N4C6COCC4C6)CC5)cc23)nc1 [Example 54, 6-[(7S)-2-{3-[5-(3-Methylpyrazin-2-yl)pyridin-2-yl]-1H-pyrrolo[2,3-b]pyridin-5-yl}-6,7,8,9-tetrahydro-5H-benzo[7]annulen-7-yl]-3-oxa-6-azabicyclo[3.1.1]heptane] | > 1000 | 100 to 1000
Cc1cnc(C)c(-c2ccc(-c3c[nH]c4ncc(-c5ccc6c(c5)CC[C@@H](N5C7COCC5C7)CC6)cc34)cc2)n1 [Example 53, 6-[(7S)-2-{3-[4-(3,6-Dimethylpyrazin-2-yl)phenyl]-1H-pyrrolo[2,3-b]pyridin-5-yl}-6,7,8,9-tetrahydro-5H-benzo[7]annulen-7-yl]-3-oxa-6-azabicyclo[3.1.1]heptane] | 100 to 1000 | 100 to 1000
N#Cc1cccnc1-c1ccc(-c2n[nH]c3ncc(-c4ccc5c(c4)CC[C@@H](N4C6COCC4C6)CC5)cc23)cc1 [Example 52, 2-(4-{5-[(7S)-7-{3-Oxa-6-azabicyclo[3.1.1]heptan-6-yl}-6,7,8,9-tetrahydro-5H-benzo[7]annulen-2-yl]-1H-pyrazolo[3,4-b]pyridin-3-yl}phenyl)pyridine-3-carbonitrile] | 100 to 1000 | 100 to 1000
FC(F)c1cccnc1-c1ccc(-c2n[nH]c3ncc(-c4ccc5c(c4)CC[C@@H](N4C6COCC4C6)CC5)cc23)cc1 [Example 89, 6-[(7S)-3-[3-[4-[3-(Difluoromethyl)pyridin-2-yl]phenyl]-1H-pyrazolo[3,4-b]pyridin-5-yl]-6,7,8,9-tetrahydro-5H-benzo[7]annulen-7-yl]-3-oxa-6-azabicyclo[3.1.1]heptane] | 100 to 1000 | 100 to 1000
COCCOc1cccnc1-c1ccc(-c2c[nH]c3ncc(-c4ccc5c(c4)CC[C@@H](N4C6COCC4C6)CC5)cc23)cc1 [Example 3, 6-[(7S)-2-(3-{4-[3-(2-Methoxyethoxy)pyridin-2-yl]phenyl}-1H-pyrrolo[2,3-b]pyridin-5-yl)-6,7,8,9-tetrahydro-5H-benzo[7]annulen-7-yl]-3-oxa-6-azabicyclo[3.1.1]heptane] | < 100 | < 100
C[C@@H]1CCCN1[C@@]1(C)CCc2ccc(-c3cnc4[nH]nc(-c5ccc(-c6nccs6)cc5)c4c3)cc2CC1 [Example 91, 2-(4-{5-[(7S)-7-Methyl-7-[(2R)-2-methylpyrrolidin-1-yl]-6,7,8,9-tetrahydro-5H-benzo[7]annulen-2-yl]-2H-pyrazolo[3,4-b]pyridin-3-yl}phenyl)-1,3-thiazole] | 100 to 1000 | 100 to 1000
CN(C)C(=O)c1ccccc1-c1ccc(-c2c[nH]c3ncc(-c4ccc5c(c4)CC[C@@H](N4C6COCC4C6)CC5)cc23)cc1 [Example 92, N,N-Dimethyl-4′-{5-[(7S)-7-{3-oxa-6-azabicyclo[3.1.1]heptan-6-yl}-6,7,8,9-tetrahydro-5H-benzo[7]annulen-2-yl]-1H-pyrrolo[2,3-b]pyridin-3-yl}-[1,1′-biphenyl]-2-carboxamide] | 100 to 1000 | < 100
c1cncc(-c2ccc(-c3n[nH]c4ncc(-c5ccc6c(c5)CC[C@@H](N5C7COCC5C7)CC6)cc34)cc2)c1 [Example 157, 6-[(7S)-2-{3-[4-(Pyridin-3-yl)phenyl]-2H-pyrazolo[3,4-b]pyridin-5-yl}-6,7,8,9-tetrahydro-5H-benzo[7]annulen-7-yl]-3-oxa-6-azabicyclo[3.1.1]heptane] | > 1000 | > 1000
Fc1cc(-c2c[nH]c3ncc(-c4ccc5c(c4)CC[C@@H](N4C6COCC4C6)CC5)cc23)ccc1-c1ccccn1 [Example 40, 6-[(7S)-2-{3-[3-Fluoro-4-(pyridin-2-yl)phenyl]-1H-pyrrolo[2,3-b]pyridin-5-yl}-6,7,8,9-tetrahydro-5H-benzo[7]annulen-7-yl]-3-oxa-6-azabicyclo[3.1.1]heptane] | 100 to 1000 | 100 to 1000
Cc1cccnc1-c1ccc(-c2n[nH]c3ncc(-c4ccc5c(c4)CC[C@@H](N4C6COCC4C6)CC5)cc23)cc1 [Example 2, 6-[(7S)-2-{3-[4-(3-Methylpyridin-2-yl)phenyl]-2H-pyrazolo[3,4-b]pyridin-5-yl}-6,7,8,9-tetrahydro-5H-benzo[7]annulen-7-yl]-3-oxa-6-azabicyclo[3.1.1]heptane] | 100 to 1000 | < 100
COc1cc(-c2n[nH]c3ncc(-c4ccc5c(c4)CC[C@@H](N4C6COCC4C6)CC5)cc23)ccc1-c1ccccn1 [Example 160, 6-[(7S)-2-{3-[3-Methoxy-4-(pyridin-2-yl)phenyl]-2H-pyrazolo[3,4-b]pyridin-5-yl}-6,7,8,9-tetrahydro-5H-benzo[7]annulen-7-yl]-3-oxa-6-azabicyclo[3.1.1]heptane] | 100 to 1000 | 100 to 1000
Cc1cc(C)c(-c2ccc(-c3n[nH]c4ncc(-c5ccc6c(c5)CC[C@@H](N5C7COCC5C7)CC6)cc34)cc2)nn1 [Example 77, 6-[(7S)-2-{3-[4-(4,6-Dimethylpyridazin-3-yl)phenyl]-1H-pyrazolo[3,4-b]pyridin-5-yl}-6,7,8,9-tetrahydro-5H-benzo[7]annulen-7-yl]-3-oxa-6-azabicyclo[3.1.1]heptane] | 100 to 1000 | < 100
COc1cc(-c2c[nH]c3ncc(-c4ccc5c(c4)CC[C@@H](N4C6COCC4C6)CC5)cc23)ccc1-c1ccccn1 [Example 161, 6-[(7S)-2-{3-[3-Methoxy-4-(pyridin-2-yl)phenyl]-1H-pyrrolo[2,3-b]pyridin-5-yl}-6,7,8,9-tetrahydro-5H-benzo[7]annulen-7-yl]-3-oxa-6-azabicyclo[3.1.1]heptane] | 100 to 1000 | 100 to 1000
Fc1cccnc1-c1ccc(-c2c[nH]c3ncc(-c4ccc5c(c4)CC[C@@H](N4C6COCC4C6)CC5)cc23)cc1 [Example 42, 6-[(7S)-2-{3-[4-(3-Fluoropyridin-2-yl)phenyl]-1H-pyrrolo[2,3-b]pyridin-5-yl}-6,7,8,9-tetrahydro-5H-benzo[7]annulen-7-yl]-3-oxa-6-azabicyclo[3.1.1]heptane] | 100 to 1000 | 100 to 1000
FC(F)(F)c1cccnc1-c1ccc(-c2n[nH]c3ncc(-c4ccc5c(c4)CC[C@@H](N4C6COCC4C6)CC5)cc23)cc1 [Example 88, 6-[(7S)-3-[3-[4-[3-(Trifluoromethyl)pyridin-2-yl]phenyl]-1H-pyrazolo[3,4-b]pyridin-5-yl]-6,7,8,9-tetrahydro-5H-benzo[7]annulen-7-yl]-3-oxa-6-azabicyclo[3.1.1]heptane] | 100 to 1000 | 100 to 1000
